Results taken from patent publication US11214594B2, “Antimicrobial peptide having synergistic antibacterial effect with antibiotics on multidrug resistant bacteria, and use thereof” (priority 2016, dated 2022).
Values after ≈ are worked out from the molar mass of the structure shown. Where two headings read alike, the source gives them in different places. Where a SMILES comes first, the peptide text is derived from it.

Key:
[1] = test system: MDRST 8007; assay: Minimal inhibitory concentration (MIC), single agent; format: cell-based, Salmonella typhimurium; settings: agent alone
In short: (§1)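 MIC read-out = lowest peptide level with no bacterial proliferation. Strains diluted in MH medium to 2×10^6 CFU; peptide twofold serial dilutions in MH added 1:1 in microtiter wells.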

[2] = test system: MDRST 8009; format: cell-based, Salmonella typhimurium; settings: agent alone
In short: as §1

[3] = test system: MDREC 1238; format: cell-based, Escherichia coli
In short: as §1

[4] = test system: S. epidermidis; assay: microbe, parasite or virus in culture; format: cell-based, Staphylococcus epidermidis
In short: as §1

[5] = test system: MDREC 1229; format: cell-based, Escherichia coli
In short: (§2)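 Broth microdilution in MH medium; strains were diluted to 2×10^6 CFU per ml before plating. Peptide was serially diluted stepwise at 2:1 starting from its MIC, and MH-diluted antibiotic was then added to determine MIC. The reversed arrangement was also tested.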

[6] = test system: E. coli; format: cell-based, Escherichia coli; settings: E. coli
In short: as §2

[7] = test system: B. subtilis; assay: microbe, parasite or virus in culture; format: cell-based, Bacillus subtilis
In short: as §1

[8] = test system: MRSA 3114; format: cell-based, Staphylococcus aureus; settings: 3114
In short: as §1

[9] = test system: MRSA 3126; format: cell-based, Staphylococcus aureus; settings: 3126
In short: as §1

[10] = test system: MDRPA 2002; format: cell-based, Pseudomonas aeruginosa
In short: as §1

[11] = test system: MDRPA 2003; format: cell-based, Pseudomonas aeruginosa
In short: as §1

[12] = test system: MDRAB 12036; format: cell-based, Acinetobacter baumannii
In short: as §1

[13] = test system: A. baumannii; assay: MIC of antimicrobial peptide during combined treatment with antibiotic; format: cell-based, Acinetobacter baumannii
In short: as §2

[14] = test system: MDRAB 12035; assay: as above; format: cell-based, Acinetobacter baumannii
In short: as §2

[15] = test system: MDREC 1229; assay: microbe, parasite or virus in culture; format: cell-based, Escherichia coli
In short: as §1

[16] = linezolid 64 μg/ml (Conc./MIC 1/8)
[17] = linezolid 512 μg/ml (Conc./MIC 1)
[18] = vancomycin 512 μg/ml (Conc./MIC 1/2)
[19] = vancomycin 1024 μg/ml (Conc./MIC 1)
[20] = erythromycin 4 μg/ml (Conc./MIC 1/8)
[21] = erythromycin 8 μg/ml (Conc./MIC 1/4)
[22] = erythromycin 16 μg/ml (Conc./MIC 1/2)
[23] = erythromycin 32 μg/ml (Conc./MIC 1)

In the case of `CC[C@H](C)[C@H](NC(=O)[C@H](CCCCN)NC(=O)[C@H](Cc1c[nH]c2ccccc12)NC(=O)[C@@H](N)CCCNC(=N)N)C(=O)N[C@@H](Cc1ccccc1)C(=O)N[C@@H](CCCCN)C(=O)N[C@@H](CCCCN)C(=O)N[C@H](C(=O)N1CCC[C@H]1C(=O)N[C@@H](CCCCN)C(=O)N[C@@H](Cc1ccccc1)C(=O)N[C@@H](CC(C)C)C(=O)N[C@@H](Cc1c[nH]cn1)C(=O)N[C@@H](CCC(=O)O)C(=O)N[C@@H](C)C(=O)N[C@@H](CCCCN)C(=O)N[C@@H](CCCCN)C(=O)N[C@@H](Cc1ccccc1)C(N)=O)[C@@H](C)CC` [PapMA-11, RWK IFK KIP KFL HEA KKF-NH2] (H-RWKIFKKIPKFLHEAKKF-NH2; N-terminus assumed), the “Minimal inhibitory concentration MIC” value [1] was 64 µg/mL (≈ 27.3 µM), the “Minimal inhibitory concentration MIC” value [2] was 64 µg/mL (≈ 27.3 µM) and the “Minimal inhibitory concentration MIC” value [3] was 64 µg/mL (≈ 27.3 µM). For the same compound, the “Minimal inhibitory concentration MIC” value [4] was >128 µg/mL, the “Peptide MIC during treatment with antibiotic” value ([5]; erythromycin 32 μg/ml (Conc./MIC 1/8)) was 4 µg/mL and the “Peptide MIC during treatment with antibiotic” value ([5]; erythromycin 64 μg/ml (Conc./MIC 1/4)) was 2 µg/mL. The “Peptide MIC during treatment with antibiotic” value ([5]; erythromycin […] (Conc./MIC 1)) was 0 µg/mL, the “Peptide MIC during treatment with antibiotic” value ([5]; erythromycin […] (Conc./MIC 1/2)) was 1 µg/mL and the “Peptide MIC during treatment with antibiotic” value [5, 16] was 8 µg/mL. The “Peptide MIC during treatment with antibiotic” value [5, 17] was 0 µg/mL, the “Peptide MIC during treatment with antibiotic” value ([5]; linezolid […] (Conc./MIC 1/2)) was 2 µg/mL and the “Peptide MIC during treatment with antibiotic” value ([5]; linezolid […] (Conc./MIC 1/4)) was 4 µg/mL. The “Peptide MIC during treatment with antibiotic” value [5, 18] was 2 µg/mL, the “Peptide MIC during treatment with antibiotic” value [5, 19] was 1 µg/mL and the “Peptide MIC during treatment with antibiotic” value ([5]; vancomycin […] (Conc./MIC 1/4)) was 4 µg/mL. For the same compound, the “Peptide MIC during treatment with antibiotic” value ([5]; vancomycin […] (Conc./MIC 1/8)) was 8 µg/mL, the “Peptide MIC” value ([6]; with Erythromycin […] (Conc./MIC 1)) was 0 µg/mL and the “Peptide MIC” value ([6]; with Linezolid […] (Conc./MIC 1)) was 0 µg/mL. For the same compound, the “Peptide MIC” value ([6]; with Vancomycin 1024 μg/ml (Conc./MIC 1)) was 0 µg/mL, the “Minimal inhibitory concentration MIC” value [7] was >128 µg/mL and the “Minimal inhibitory concentration MIC” value [8] was >128 µg/mL. For the same compound, the “Minimal inhibitory concentration MIC” value [9] was >128 µg/mL, the “Minimal inhibitory concentration MIC” value [10] was 128 µg/mL (≈ 54.6 µM) and the “Minimal inhibitory concentration MIC” value [11] was >128 µg/mL. The “Minimal inhibitory concentration MIC” value [12] was 64 µg/mL (≈ 27.3 µM), the “Peptide MIC during treatment with antibiotic” value [13, 20] was 4 µg/mL and the “Peptide MIC during treatment with antibiotic” value [13, 21] was 4 µg/mL. The “Peptide MIC during treatment with antibiotic” value [13, 22] was 2 µg/mL, the “Peptide MIC during treatment with antibiotic” value [13, 23] was 0 µg/mL and the “Peptide MIC during treatment with antibiotic” value ([13]; linezolid 32 μg/ml (Conc./MIC 1/8)) was 8 µg/mL. The “Peptide MIC during treatment with antibiotic” value ([13]; linezolid 64 μg/ml (Conc./MIC 1/4)) was 4 µg/mL, the “Peptide MIC during treatment with antibiotic” value ([13]; linezolid […] (Conc./MIC 1)) was 0 µg/mL and the “Peptide MIC during treatment with antibiotic” value ([13]; linezolid […] (Conc./MIC 1/2)) was 2 µg/mL. For the same compound, the “Peptide MIC during treatment with antibiotic” value [13, 18] was 0.25 µg/mL, the “Peptide MIC during treatment with antibiotic” value [13, 19] was 0 µg/mL and the “Peptide MIC during treatment with antibiotic” value ([13]; vancomycin […] (Conc./MIC 1/4)) was 0.5 µg/mL. The “Peptide MIC during treatment with antibiotic” value ([13]; vancomycin […] (Conc./MIC 1/8)) was 2 µg/mL, the “Peptide MIC during treatment with erythromycin” value [14, 20] was 4 µg/mL and the “Peptide MIC during treatment with erythromycin” value [14, 21] was 4 µg/mL. For the same compound, the “Peptide MIC during treatment with erythromycin” value [14, 22] was 2 µg/mL, the “Peptide MIC during treatment with erythromycin” value [14, 23] was 0 µg/mL and the “Peptide MIC during treatment with linezolid” value [14, 16] was 4 µg/mL. For the same compound, the “Peptide MIC during treatment with linezolid” value [14, 17] was 0 µg/mL, the “Peptide MIC during treatment with linezolid” value ([14]; linezolid […] (Conc./MIC 1/2)) was 2 µg/mL and the “Peptide MIC during treatment with linezolid” value ([14]; linezolid […] (Conc./MIC 1/4)) was 2 µg/mL. For the same compound, the “Peptide MIC during treatment with vancomycin” value [14, 18] was 1 µg/mL, the “Peptide MIC during treatment with vancomycin” value [14, 19] was 1 µg/mL and the “Peptide MIC during treatment with vancomycin” value ([14]; vancomycin […] (Conc./MIC 1/4)) was 2 µg/mL. The “Peptide MIC during treatment with vancomycin” value ([14]; vancomycin […] (Conc./MIC 1/8)) was 2 µg/mL, the “Minimal inhibitory concentration MIC” value [15] was 64 µg/mL (≈ 27.3 µM) and the “Peptide MIC, peptide alone” value [15] was 64 µg/mL.
